This passage reports IC50 results from PubChem BioAssay AID493110 (The Scripps Research Institute Molecular Screening Center, 2011).

In one assay the target is LYPLA2. Put plainly: IC50 of LYPLA1/LYPLA2 inhibition – biochemical, gel-based ABPP, dose response (AID 493110). To be noted: competitive probe labeling.
Another assay has as its target LYPLA1. The assay is described as above. The settings on record: competitive probe labeling.

pIC50: −log10 of the molar value. Active and inactive are the calls of the source. How the calls were made is not given here.

`O=C(N1CCOCC1)n1nnc2ccccc21`: the IC50 entry on LYPLA2 is “inactive”. In addition, the pIC50 at LYPLA1 was 6.10.

Consider `CC(C)(C)C1CCN(C(=O)n2ncc(C(O)(c3ccccc3)c3ccccc3)n2)CC1`, for which the pIC50 at LYPLA2 is 7.52; at LYPLA1, 7.77.

Regarding `CC(C)(C)C1CCN(C(=O)n2ncc(C3(O)CCCCC3)n2)CC1`, the pIC50 at LYPLA2 was 7.24; on LYPLA1, 7.46.

For the compound `CCC1CCCCN1C(=O)n1ncc(C(O)(c2ccccc2)c2ccccc2)n1` (stereo not given), the IC50 on LYPLA2 and on LYPLA1 was > 10000 nM (inactive) in each case.

For the compound `CC(C)(O)c1cnn(C(=O)N2CCC(C(C)(C)C)CC2)n1`, the pIC50 on LYPLA2 was 7.01; at LYPLA1, 7.36.
